IC50 data for 17 compounds are collected here from US20250179032A1, “HETEROCYCLIC INHIBITORS OF GLUT9 FOR TREATMENT OF DISEASE” (HORIZON THERAPEUTICS IRELAND DAC, priority 2022, published 2025).

A word on the IC50: it is the concentration needed to halve the response being measured.

The first test concerns the target T1, H. sapiens SLC2A9 variant 2 (GLUT9B) (Homo sapiens, UniProt Q9NRM0).
T1 sequence (Q9NRM0 1-511 isoform Q9NRM0-2): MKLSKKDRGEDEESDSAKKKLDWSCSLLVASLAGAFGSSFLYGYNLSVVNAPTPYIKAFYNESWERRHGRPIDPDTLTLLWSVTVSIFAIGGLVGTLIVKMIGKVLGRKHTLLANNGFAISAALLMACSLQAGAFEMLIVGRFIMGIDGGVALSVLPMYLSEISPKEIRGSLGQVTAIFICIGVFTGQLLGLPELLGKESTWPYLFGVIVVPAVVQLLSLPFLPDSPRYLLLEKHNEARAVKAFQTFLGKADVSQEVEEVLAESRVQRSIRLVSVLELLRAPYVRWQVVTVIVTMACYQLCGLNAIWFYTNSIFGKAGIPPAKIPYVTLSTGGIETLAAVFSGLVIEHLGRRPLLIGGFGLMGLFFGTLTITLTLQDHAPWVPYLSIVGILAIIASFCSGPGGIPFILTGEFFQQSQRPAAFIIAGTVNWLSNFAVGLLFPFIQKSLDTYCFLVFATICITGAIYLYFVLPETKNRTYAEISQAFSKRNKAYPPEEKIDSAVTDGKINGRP
Put plainly: GLUT9 functional assay: uric acid uptake in HEK293T cells, allantoin formation by MS/MS as proxy of GLUT9B inhibition. The conditions noted are these: 15 minute assay; HEK293T cells stably expressing GLUT9B and transiently A. oryzae uricase; uric acid 0.3 mM, 37° C.; read-out: 15 min IC50. In kind it is cell-based. How it is done: Uric acid stocks (9 mM, Millipore-Sigma, U0881) were generated in 125 mM choline chloride (Millipore-Sigma, C7017) and the concentration was determined at 293 nm using a molar extinction coefficient of 9600 M- ^1 cm- ^1) after collecting the absorbance spectra from 220-350 nm. Allantoin stocks (12 mM Toronto Research Chemicals, A540500) were generated in LCMS grade water (Thermo Scientific, 51140). The concentration of allantoin was determined by qNMR (Michigan State University). HEK293T cells were purchased from ATCC (HEK 293T/17 SF). Hanks buffered saline salts (HBSS) was purchased from Millipore-Sigma (H6648-1L).
SLC2A9 variant 2 was assayed in sodium gluconate buffer was composed of 125 mM sodium gluconate (TCI Chemicals, G0041-500G), 4.8 mM potassium gluconate (TCI Chemicals, G0040-500G), 1.2 mM calcium gluconate (TCI Chemicals, G0037-500G), 1.2 mM potassium phosphate (pH 7.4, Millipore-Sigma, 17835), 1.2 mM MgSO4, Millipore-Sigma, M2773-500G), 25 mM HEPES pH 7.3, (Millipore-Sigma, 54457). The final pH of the buffer was 7.4. Urate 1 was assayed in the same buffer save the pH was made to be 5.5 using 25 mM MES (pH 5.5) buffer vs 25 mM HEPES (pH 7.3) buffer.
Human untagged clone for (untagged)-human solute carrier family 2 member 9 (SLC2A9), transcript variant (SLC2A9/NM_001001290, FIG. 1 and FIG. 2; SEQ ID NOS: 3 and 4) was purchased from Origene (Cat #SC319239). SLC2A9 variant 2 (GLUT9B) gene was amplified by PCR using the following primer to allow for the introduction of EcoR1 and Not1 sites using the primers below.
HEK293T clonal stable cell lines containing the SLC2A9 variant 2 construct in the bicistronic pIRESpuro vector were generated using Viafect™ (Promega E4981) as per the manufactures instructions and puromycin selection (5 μg×mL^−1).
Uric acid uptake was measured in HEK293T cells stably expressing H. sapiens SLC2A9 variant 2 (GLUT9B) and transiently expressing A. oryzae uricase. Thus, decreased allantoin formation was used as a proxy of GLUT9B inhibition. Briefly, clonal cells were plated (53,000 cells/cm^2) in DMEM with 10% FBS. Twenty-four hours later, A. oryzae uricase was transfected, and assay conducted 3 days later across a 12-point curve in buffer (in mM: 125 sodium gluconate, 4.8 potassium gluconate, 1.2 calcium gluconate, 1.2 potassium phosphate, 1.2 magnesium sulfate4, 25 HEPES; pH 7.4) with uric acid at the GLUT9B Km (0.3 mM) for 15 min or for 60 min, at 37° C. Following wash (Hanks, 37° C.), plates were sealed, incubated (5 min, RT) and cells freeze-thawed prior to lysing in water and shaking (30 min RT). Lysates were filtered through PVDF and subjected to MSMS using a 10 mM ammonium acetate-based mobile phase on a porous graphitic carbon column. Allantoin was detected in positive ion mode. Desired analyte concentrations were quantitated by integrating the area under the curve followed by a log-logistic regression model and data compared to a standard curve prepared in a matching HEK293T biological matrix.
Mass spectrometry measurement of allantoin was completed using an Agilent RapidFire 300 coupled to a Sciex API 4000 mass spectrometer. The stationary phase was an Agilent cartridge D (hypercarb). Mobile phase A was 10 mM ammonium acetate. Mobile phase B was 5 mM ammonium acetate, 25% acetonitrile, 25% acetone. Allantoin was detected in positive ion mode with the following compound ID settings: Q1 159, Q3 115.8, DP 57, CE 12.5 Dwell 100 ms. The source settings were CAD 10, CUR 20, GS1 50, GS250 IS/NC: 5000, TEM 650, EP 10, CXP 10 where Q1 and Q3 resolution were set to low.
Data was quantitated using Area under the curve integration was performed with the RapidFire™ Integrator (Agilent Technologies) for the desired analytes. Quantitation was completed using in a using a log-logistic regression model using allantoin in matching HEK293T biological matrix.
Turning to `CCCCc1cnc(-c2ccc(OC)cc2)c(N2CCN(CC(=O)O)CC2)n1` [Compound 1, 2-(4-(6-Butyl-3-(4-Methoxyphenyl)Pyrazin-2-yl)Piperazin-1-yl)Acetic Acid], the IC50 is more than 2000 nM.

Turning to `CCCCc1cnc(-c2ccc(F)c(OC)c2)c(N2CCC(C(=O)O)CC2)n1` [Compound 2, 1-(6-Butyl-3-(4-Fluoro-3-Methoxyphenyl)Pyrazin-2-yl)Piperidine-4-carboxylic acid], the IC50 was more than 2000 nM.

Regarding `CCCCc1cnc(-c2ccc(OC)cc2)c(N2CCC(C(=O)O)CC2)n1` [Compound 3, 1-(6-Butyl-3-(4-Methoxyphenyl)Pyrazin-2-yl)Piperidine-4-Carboxylic Acid], the IC50 is less than 500 nM.

As to `CCCCc1cnc(-c2ccc(OC)cc2)c(N2CC3C(C2)C3C(=O)O)n1` (stereo not drawn) [Compound 4, 3-(6-Butyl-3-(4-Methoxyphenyl)Pyrazin-2-yl)-3-Azabicyclo[3.1.0]Hexane-6-carboxylic acid], the IC50 was less than 500 nM.

Take `CCCCc1cnc(-c2ccc3[nH]ccc3c2)c(N2CCC(C(=O)O)CC2)n1` [Compound 5, 1-(6-Butyl-3-(1H-Indol-5-yl)Pyrazin-2-yl)Piperidine-4-Carboxylic Acid]: the half-inhibitory concentration (IC50) is more than 2000 nM.

Consider `CCCCc1cnc(-c2ccc(OCCN(C)C)cc2)c(N2CCC(C(=O)O)CC2)n1` [Compound 6, 1-(6-Butyl-3-(4-(2-(Dimethylamino)Ethoxy)Phenyl)Pyrazin-2-yl)piperidine-4-carboxylic acid], for which the concentration for half-maximal inhibition (IC50) is more than 2000 nM.

For `CCCCc1cnc(-c2ccc(S(C)(=O)=O)cc2)c(N2CCC(C(=O)O)CC2)n1` [Compound 7, 1-(6-Butyl-3-(4-(Methylsulfonyl)Phenyl)Pyrazin-2-yl)Piperidine-4-carboxylic acid], the IC50 was 500 to 2000 nM.

For the compound `CCCCc1cnc(-c2ccc(OC)cc2)c(N2CCC(S(C)(=O)=O)CC2)n1` [Compound 8, 5-Butyl-2-(4-Methoxyphenyl)-3-(4-(Methylsulfonyl)Piperidin-1-yl)pyrazine], the IC50 was more than 2000 nM.

In the case of `CCCCc1cnc(-c2cc(F)c3occc3c2)c(N2CCC(C(=O)O)CC2)n1` [Compound 9, 1-(6-Butyl-3-(7-Fluorobenzofuran-5-yl)Pyrazin-2-yl)Piperidine-4-carboxylic acid], the IC50 is less than 500 nM.

For the compound `CCCCc1cnc(-c2ccc(OC)cc2)c(N2CCC(F)(C(=O)O)CC2)n1` [Compound 10, 1-(6-Butyl-3-(4-Methoxyphenyl)Pyrazin-2-yl)-4-Fluoropiperidine-4-carboxylic acid], the half-maximal inhibitory concentration (IC50) was less than 500 nM.

For `CCCCc1cnc(-c2ccc(OC)cc2)c(N2CCC(C(=O)NS(C)(=O)=O)CC2)n1` [Compound 11, 1-(6-Butyl-3-(4-Methoxyphenyl)Pyrazin-2-yl)-N-(Methylsulfonyl)Piperidine-4-carboxamide], the IC50 was less than 500 nM.

`CCCCc1cnc(-c2ccc(OC)cc2)c(N2CCC(C(=O)O)C2)n1` (stereo not drawn) [Compound 12, 1-(6-Butyl-3-(4-Methoxyphenyl)Pyrazin-2-yl)Pyrrolidine-3-Carboxylic acid]: the concentration for half-maximal inhibition (IC50) is more than 2000 nM.

Still in this test, the particulars now being: 60 minute assay; HEK293T cells stably expressing GLUT9B and transiently A. oryzae uricase; uric acid 0.3 mM, 37° C.; read-out: 60 min IC50.
Regarding `COCCCc1cnc(-c2ccc3occc3c2)c(N2CCC(C(=O)O)CC2C)n1` (racemic) [Compound 180, 1-(3-(benzofuran-5-yl)-6-(3-Methoxypropyl)Pyrazin-2-yl)-2-methylpiperidine-4-carboxylic acid], the concentration for half-maximal inhibition (IC50) is less than 500 nM.

With `COCCCc1cnc(-c2cc(F)c3occc3c2)c(N2CC[C@@H](C(=O)O)C[C@@H]2C)n1` (single isomer, unassigned) [Compound 183], the half-maximal inhibitory concentration (IC50) is less than 500 nM.

As for `COCCCc1cnc(-c2cc(F)c3occc3c2)c(N2CC[C@H](C(=O)O)C[C@@H]2C)n1` (single isomer, unassigned) [Compound 229], the IC50 is less than 500 nM.

For `COCCCc1cnc(-c2ccc3occc3c2)c(N2CCC[C@H](C(=O)O)C2)n1` (single isomer, unassigned) [Compound 235], the half-inhibitory concentration (IC50) is more than 2000 nM.

`COCCCc1cnc(-c2ccc3occc3c2)c(N2CCC[C@@H](C(=O)O)C2)n1` (single isomer, unassigned) [Compound 236]: the IC50 lay within 500 to 2000 nM.

On to `CCCCc1cnc(-c2ccc(OC)cc2)c(N2CCC(C(=O)O)CC2)n1` [Compound 3, 1-(6-Butyl-3-(4-Methoxyphenyl)Pyrazin-2-yl)Piperidine-4-Carboxylic Acid], for which the IC50 was less than 500 nM.
